Measurements taken from patent US9113629B2, “4-amino-6-(4-substituted-phenyl)-picolinates and 6-amino-2-(4-substituted-phenyl)-pyrimidine-4-carboxylates and their use as herbicides” (DOW AGROSCIENCES LLC, priority 2013, dated 2015).
Where two headings read alike, the source gives them in different places.

Columns and labels:
[1] = test system: Key Broadleaf Weed and Crop Species; assay: Post-emergent Test II herbicidal activity (Table 5); format: in vivo; conditions: post-emergence, 336 h, 14 days after application; for pest or weed control at 70 g/ha: application rate 70 g ai/ha; for pest or weed control at 140 g/ha: application rate 140 g ai/ha
Procedure, shortened: (§1)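 Foliar application at 187 L/ha to greenhouse-grown seedlings (first or second true leaf); subirrigation thereafter. Visual 0–100% injury at 14 d relative to untreated plants.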

[2] = test system: Key Grass and Sedge Weeds as well as Grass Crops; assay: Post-emergent Test II herbicidal activity (Table 6); format: in vivo; conditions: post-emergence, 336 h; for pest or weed control at 70 g/ha: 70 g ai/ha; for pest or weed control at 140 g/ha: 140 g ai/ha
Procedure, shortened: as §1

[3] = ABUTH: velvetleaf (Abutilon theophrasti), read-out: Visual Growth Reduction (%) 14 Days After Application, ABUTH
[4] = AMARE: redroot pigweed (Amaranthus retroflexus), read-out: Visual Growth Reduction (%) 14 Days After Application, AMARE
[5] = BRSNN: oilseed-rape, canola (Brassica napus), read-out: Visual Growth Reduction (%) 14 Days After Application, BRSNN
[6] = CHEAL: lambsquarters (Chenopodium album), read-out: Visual Growth Reduction (%) 14 Days After Application, CHEAL
[7] = EPHHL: wild poinsettia (Euphorbia heterophylla), read-out: Visual Growth Reduction (%) 14 Days After Application, EPHHL
[8] = HELAN: sunflower (Helianthus annuus), read-out: Visual Growth Reduction (%) 14 Days After Application, HELAN
[9] = VIOTR: wild pansy (Viola tricolor), read-out: Visual Growth Reduction (%) 14 Days After Application, VIOTR
[10] = CYPES: yellow nutsedge (Cyperus esculentus), read-out: Visual Growth Reduction (%) 14 Days After Application, CYPES
[11] = DIGSA: crabgrass (Digitaria sanguinalis), read-out: Visual Growth Reduction (%) 14 Days After Application, DIGSA
[12] = ECHCG: barnyardgrass (Echinochloa crus-galli), read-out: Visual Growth Reduction (%) 14 Days After Application, ECHCG
[13] = ORYSA: rice (Oryza sativa), crop, read-out: Visual Growth Reduction (%) 14 Days After Application, ORYSA
[14] = SETFA: giant foxtail (Setaria faberi), read-out: Visual Growth Reduction (%) 14 Days After Application, SETFA
[15] = SORVU: grain sorghum (Sorghum vulgare), read-out: Visual Growth Reduction (%) 14 Days After Application, SORVU
[16] = TRZSS (wheat, Triticum aestivum), crop, read-out: Visual Growth Reduction (%) 14 Days After Application, TRZSS
[17] = ZEAMX: maize, corn (Zea mays), crop, read-out: Visual Growth Reduction (%) 14 Days After Application, ZEAMX

SMILES	pest or weed control at 70 g/ha [1, 3] [%]	pest or weed control at 140 g/ha [1, 3] [%]	pest or weed control at 70 g/ha [1, 4] [%]	pest or weed control at 140 g/ha [1, 4] [%]	pest or weed control at 70 g/ha [1, 5] [%]	pest or weed control at 140 g/ha [1, 5] [%]	pest or weed control at 70 g/ha [1, 6] [%]	pest or weed control at 140 g/ha [1, 6] [%]	pest or weed control at 70 g/ha [1, 7] [%]	pest or weed control at 140 g/ha [1, 7] [%]	pest or weed control at 70 g/ha [1, 8] [%]	pest or weed control at 140 g/ha [1, 8] [%]	pest or weed control at 70 g/ha [1, 9] [%]	pest or weed control at 140 g/ha [1, 9] [%]	pest or weed control at 70 g/ha [2, 10] [%]	pest or weed control at 140 g/ha [2, 10] [%]	pest or weed control at 70 g/ha [2, 11] [%]	pest or weed control at 140 g/ha [2, 11] [%]	pest or weed control at 70 g/ha [2, 12] [%]	pest or weed control at 140 g/ha [2, 12] [%]	further results
COc1c(N)nc(-c2ccc(Br)cc2)nc1C(=O)O [Compound 54]	85 to 94	85 to 94	95 to 100	95 to 100	95 to 100	95 to 100	95 to 100	95 to 100	95 to 100	95 to 100	85 to 94	95 to 100	30 to 44	45 to 59	45 to 59	95 to 100	0 to 29	60 to 74	95 to 100	95 to 100	pest or weed control at 70 g/ha [2, 13]: 0 to 29%; pest or weed control at 140 g/ha [2, 13]: 0 to 29%; pest or weed control at 70 g/ha [2, 14]: 75 to 84%; pest or weed control at 140 g/ha [2, 14]: 75 to 84%; pest or weed control at 70 g/ha [2, 15]: 60 to 74%; pest or weed control at 140 g/ha [2, 15]: 75 to 84%; pest or weed control at 70 g/ha [2, 16]: 45 to 59%; pest or weed control at 140 g/ha [2, 16]: 45 to 59%; pest or weed control at 70 g/ha [2, 17]: 95 to 100%; pest or weed control at 140 g/ha [2, 17]: 95 to 100%
Nc1cc(-c2ccc(I)cc2)nc(C(=O)O)c1Cl [Compound 4]	95 to 100	95 to 100	85 to 94	85 to 94	95 to 100	95 to 100	95 to 100	95 to 100	95 to 100	95 to 100	75 to 84	85 to 94	0 to 29	0 to 29	45 to 59	95 to 100	60 to 74	75 to 84	75 to 84	85 to 94	pest or weed control at 70 g/ha [2, 13]: 0 to 29%; pest or weed control at 140 g/ha [2, 13]: 0 to 29%; pest or weed control at 70 g/ha [2, 14]: 60 to 74%; pest or weed control at 140 g/ha [2, 14]: 60 to 74%; pest or weed control at 70 g/ha [2, 15]: 75 to 84%; pest or weed control at 140 g/ha [2, 15]: 75 to 84%; pest or weed control at 70 g/ha [2, 16]: 75 to 84%; pest or weed control at 140 g/ha [2, 16]: 75 to 84%; pest or weed control at 70 g/ha [2, 17]: 0 to 29%; pest or weed control at 140 g/ha [2, 17]: 0 to 29%
